From patent publication US8999970B2, “Administration of an anti-obesity compound to individuals with renal impairment” (Arena Pharmaceuticals, Inc., priority 2010, dated 2015)
Several values for one entry are separate records, joined by “and”; a condition that tells them apart may be missing. Equal entries are not always repeated.

Assays:
[1] = APD356-009 study: M1 Cmax at Week 12 following lorcaserin 10 mg BID
[2] = Adverse events in the renal impairment clinical study APD356-016; assay type: in vivo, human
Description: The incidence of adverse events was not related to severity of renal impairment. Events considered possibly or probably related to lorcaserin included 1 event each of abdominal pain (moderate group), diarrhea (moderate group), dyspepsia (mild group), stomach discomfort (mild group), and worsening renal impairment (moderate group). Two events of dizziness (1 in severe group, one in ESRD group) and 3 events of headache (2 normal, 1 moderate group) were considered possibly/probably related to study drug. A summary of the Treatment Emergent Adverse Events in the APD356-016 study by renal impairment groups and relationship to study drug are listed in Table 11.

[3] = Creatinine and creatinine clearance during 52 weeks in pooled phase 3 studies; assay type: in vivo, human
Experimental: Few patients in the APD356-009 trial developed creatinine values above or creatinine clearance values below normal (Table 12). At study entry, no patient had creatinine clearance less than 30 mL/min, and only 4 (1 randomized to lorcaserin, 3 to placebo) had values below 40 mL/min based on ideal body weight. […] Given the small number of patients with moderate or greater renal impairment in the phase 3 studies, a meaningful evaluation of the relationship between adverse events and renal impairment is not possible.

[4] = Toxicity studies in mice (determination of NOAEL); assay type: in vivo, mouse
Experimental: In the mouse, seizures occurred at single doses of 100 and 300 mg/kg lorcaserin, and death followed single doses of 1000 and 2000 mg/kg. In repeat dose studies in mice, mortality occurred at
doses ≧200 mg/kg. A dose of 250 mg/kg/day produced exposure multiples of 25 and 27 times (males and females) the exposure achieved in humans at a dose of 10 mg BID. At this dose, decreased red blood cell mass, increased reticulocytosis, increased liver weight, centrilobular hepatocellular hypertrophy, increased extramedullary hematopoeisis, and thymic necrosis occurred. The NOAEL in mice was 50 mg/kg/day, which produced exposure multiples of 7.6 and 2.3 (males and females) times the exposure in humans at 10 mg BID.

**Q.** Which “Mean Cmax observed in patients” value [1] does the source give for `C[C@H]1CN(S(=O)(=O)O)CCc2ccc(Cl)cc21` [Compound M1, lorcaserin sulfamate] here?
**A.** Its value is 196 ng/mL.

**Q.** Which “Events of dizziness possibly/probably related” value ([2]; 1 severe group, one ESRD group) does the source give for `C[C@H]1CNCCc2ccc(Cl)cc21` [Lorcaserin, (R)-8-chloro-1-methyl-2,3,4,5-tetrahydro-1H-3-benzazepine] here?
**A.** The value was “Two”.

**Q.** And the “Events of headache possibly/probably related” value ([2]; 2 normal, 1 moderate group)?
**A.** The value was 3.

**Q.** What about the “Number (%) of Subjects Reporting AEs” value ([2]; End Stage (N = 8)) of the same molecule?
**A.** Its value is 1 (12.5%).

**Q.** And the “Number (%) of Subjects Reporting AEs By Maximum Intensity: Mild” value (“Number (%) … Mild” below) ([2]; End Stage (N = 8))?
**A.** Its value is 1 (12.5%).

**Q.** And the “Number (%) of Subjects Reporting AEs By Maximum Intensity: Moderate” value (shortened to “Number (%) … Moderate”) ([2]; End Stage (N = 8))?
**A.** Its value is 0 (0.0%).

**Q.** What about the “Number (%) of Subjects Reporting AEs By Maximum Intensity: Severe” value (“Number (%) … Severe” for short) ([2]; End Stage (N = 8)) of the same molecule?
**A.** Its value is 0 (0.0%).

**Q.** What about the “Number (%) of Subjects Reporting AEs By Most Direct Relationship to Study Treatment: Not Related” value (from here on “Number (%) … Not Related”) ([2]; End Stage (N = 8)) of the same molecule?
**A.** Its value is 1 (12.5%).

**Q.** And the “Number (%) of Subjects Reporting AEs By Most Direct Relationship to Study Treatment: Possible” value (shortened to “Number (%) … Possible”) ([2]; End Stage (N = 8))?
**A.** The value was 0 (0.0%).

**Q.** What about the “Number (%) of Subjects Reporting AEs By Most Direct Relationship to Study Treatment: Probable” value (“Number (%) … Probable” for short) ([2]; End Stage (N = 8)) of the same molecule?
**A.** Its value is 0 (0.0%).

**Q.** What about the “Number (%) of Subjects Reporting AEs By Most Direct Relationship to Study Treatment: Unlikely” value (“Number (%) … Unlikely” below) ([2]; End Stage (N = 8)) of the same molecule?
**A.** Its value is 0 (0.0%).

**Q.** What about the “Number of AEs Reported” value ([2]; End Stage (N = 8)) of the same molecule?
**A.** Its value is 1.

**Q.** What about the “Number (%) of Subjects Reporting AEs” value ([2]; Mild (N = 8)) of the same molecule?
**A.** Its value is 2 (25.0%).

**Q.** And the “Number (%) … Mild” value ([2]; Mild (N = 8))?
**A.** The value was 2 (25.0%).

**Q.** And the “Number (%) … Moderate” value ([2]; Mild (N = 8))?
**A.** The value was 0 (0.0%).

**Q.** And the “Number (%) … Severe” value ([2]; Mild (N = 8))?
**A.** The value was 0 (0.0%).

**Q.** What about the “Number (%) … Not Related” value ([2]; Mild (N = 8)) of the same molecule?
**A.** Its value is 0 (0.0%).

**Q.** What about the “Number (%) … Possible” value ([2]; Mild (N = 8)) of the same molecule?
**A.** Its value is 1 (12.5%).

**Q.** What about the “Number (%) … Probable” value ([2]; Mild (N = 8)) of the same molecule?
**A.** The value was 1 (12.5%).

**Q.** What about the “Number (%) … Unlikely” value ([2]; Mild (N = 8)) of the same molecule?
**A.** Its value is 0 (0.0%).

**Q.** What about the “Number of AEs Reported” value ([2]; Mild (N = 8)) of the same molecule?
**A.** Its value is 3.

**Q.** And the “Number (%) of Subjects Reporting AEs” value ([2]; Moderate (N = 8))?
**A.** The value was 5 (62.5%).

**Q.** What about the “Number (%) … Mild” value ([2]; Moderate (N = 8)) of the same molecule?
**A.** The value was 4 (50.0%).

**Q.** And the “Number (%) … Moderate” value ([2]; Moderate (N = 8))?
**A.** Its value is 1 (12.5%).

**Q.** And the “Number (%) … Severe” value ([2]; Moderate (N = 8))?
**A.** Its value is 0 (0.0%).

**Q.** What about the “Number (%) … Not Related” value ([2]; Moderate (N = 8)) of the same molecule?
**A.** The value was 1 (12.5%).

**Q.** What about the “Number (%) … Possible” value ([2]; Moderate (N = 8)) of the same molecule?
**A.** Its value is 3 (37.5%).

**Q.** What about the “Number (%) … Probable” value ([2]; Moderate (N = 8)) of the same molecule?
**A.** Its value is 0 (0.0%).

**Q.** What about the “Number (%) … Unlikely” value ([2]; Moderate (N = 8)) of the same molecule?
**A.** Its value is 1 (12.5%).

**Q.** And the “Number of AEs Reported” value ([2]; Moderate (N = 8))?
**A.** Its value is 9.

**Q.** What about the “Number (%) of Subjects Reporting AEs” value ([2]; Normal (N = 8)) of the same molecule?
**A.** The value was 4 (50.0%).

**Q.** And the “Number (%) … Mild” value ([2]; Normal (N = 8))?
**A.** The value was 4 (50.0%).

**Q.** What about the “Number (%) … Moderate” value ([2]; Normal (N = 8)) of the same molecule?
**A.** The value was 0 (0.0%).

**Q.** What about the “Number (%) … Severe” value ([2]; Normal (N = 8)) of the same molecule?
**A.** The value was 0 (0.0%).

**Q.** What about the “Number (%) … Not Related” value ([2]; Normal (N = 8)) of the same molecule?
**A.** Its value is 0 (0.0%).

**Q.** And the “Number (%) … Possible” value ([2]; Normal (N = 8))?
**A.** Its value is 1 (12.5%).

**Q.** And the “Number (%) … Probable” value ([2]; Normal (N = 8))?
**A.** Its value is 1 (12.5%).

**Q.** And the “Number (%) … Unlikely” value ([2]; Normal (N = 8))?
**A.** The value was 2 (25.0%).

**Q.** What about the “Number of AEs Reported” value ([2]; Normal (N = 8)) of the same molecule?
**A.** The value was 4.

**Q.** What about the “Number (%) of Subjects Reporting AEs” value ([2]; Severe (N = 8)) of the same molecule?
**A.** Its value is 3 (37.5%).

**Q.** What about the “Number (%) … Mild” value ([2]; Severe (N = 8)) of the same molecule?
**A.** The value was 3 (37.5%).

**Q.** And the “Number (%) … Moderate” value ([2]; Severe (N = 8))?
**A.** The value was 0 (0.0%).

**Q.** What about the “Number (%) … Severe” value ([2]; Severe (N = 8)) of the same molecule?
**A.** The value was 0 (0.0%).

**Q.** What about the “Number (%) … Not Related” value ([2]; Severe (N = 8)) of the same molecule?
**A.** Its value is 0 (0.0%).

**Q.** And the “Number (%) … Possible” value ([2]; Severe (N = 8))?
**A.** Its value is 1 (12.5%).

**Q.** What about the “Number (%) … Probable” value ([2]; Severe (N = 8)) of the same molecule?
**A.** The value was 0 (0.0%).

**Q.** What about the “Number (%) … Unlikely” value ([2]; Severe (N = 8)) of the same molecule?
**A.** Its value is 2 (25.0%).

**Q.** What about the “Number of AEs Reported” value ([2]; Severe (N = 8)) of the same molecule?
**A.** The value was 4.

**Q.** What about the “Relation of incidence of adverse events to severity of renal impairment” value ([2]; human, in vivo) of the same molecule?
**A.** Its value is “not related”.

**Q.** And the “Events of dyspepsia possibly or probably related” value ([2]; mild group)?
**A.** The value was 1.

**Q.** And the “Events of stomach discomfort possibly or probably related” value ([2]; mild group)?
**A.** Its value is 1.

**Q.** What about the “Events of abdominal pain possibly or probably related” value ([2]; moderate group) of the same molecule?
**A.** The value was 1.

**Q.** And the “Events of diarrhea possibly or probably related” value ([2]; moderate group)?
**A.** The value was 1.

**Q.** What about the “Events of worsening renal impairment possibly or probably related” value ([2]; moderate group) of the same molecule?
**A.** The value was 1.

**Q.** What about the “Creatinine Clearance at Last Observation (Ideal Body Weight), Mean (SEM) Change from Baseline” value ([3]; Any Lorcaserin Dose, N 3746) of the same molecule?
**A.** The value was 0.25 (0.165).

**Q.** And the “Creatinine Clearance at Last Observation (Ideal Body Weight), Mean (SEM) Change from Baseline” value ([3]; Lorcaserin 10 mg BID Pooled, N 2992)?
**A.** Its value is 0.47 (0.181).

**Q.** And the NOAEL ([4]; both sexes, mouse, in vivo, mice)?
**A.** Its NOAEL is 50 mg/kg/day.

**Q.** And the “Exposure multiple of human exposure at 10 mg BID” value (shortened to “Exposure multiple”) ([4]; mice 50 mg/kg/day (NOAEL), females)?
**A.** Its value is 2.3 times.

**Q.** What about the “Exposure multiple” value ([4]; mice 50 mg/kg/day (NOAEL), males) of the same molecule?
**A.** The value was 7.6 times.

**Q.** And the “Exposure multiple” value ([4]; mice 250 mg/kg/day, females)?
**A.** The value was 27 times.

**Q.** What about the “Exposure multiple” value ([4]; mice 250 mg/kg/day, males) of the same molecule?
**A.** The value was 25 times.

**Q.** What about the “Doses at which mortality occurred” value ([4]; mice, repeat dose studies) of the same molecule?
**A.** The value was ≥ 200 mg/kg.

**Q.** And the “Single doses followed by death” value ([4]; mouse)?
**A.** The value was 1000 mg/kg and 2000 mg/kg.
